Experimental data published in US6362319B1, “Glial cell line-derived neurotrophic factor” (Amgen Inc., priority 1991, dated 2002).

Legend:
[1] = system: serotonergic neurons in rat embryo mesencephalic cultures; experiment: 3H-serotonin uptake in mesencephalic cultures; assay type: cell-based; conditions: 10 μM inhibitor
Protocol: FIGS. 24A-B depicts the specificity of GDNF to dopaminergic neurons. Cultures were prepared as described in Example 1B. GDNF was added on the day of plating, and uptake was measured after 6 days in vitro. A depicts dopamine uptake and B depicts serotonin uptake.
In the presence of 10 μM citalpram (obtained from Dr. C. Mytilineou, Mount Sinai School of Medicine), a known potent inhibitor of serotonin uptake in serotonin neurons, the ^3H-serotonin uptake was reduced to 15%.

[2] = system: GABA neurons in mesencephalic cultures; conditions: Casper et al. 1991; cited from earlier work
[3] = system: serotonergic neurons in rat embryo mesencephalic cultures; conditions: Casper et al. 1991; cited from earlier work
[4] = system: dopaminergic neurons in rat embryo (E16) mesencephalic cell cultures; conditions: Casper et al. 1991; cited from earlier work
[5] = system: GABA neurons in mesencephalic cultures; experiment: 14C-GABA uptake in mesencephalic cultures; assay type: cell-based, rat; conditions: 1 mM inhibitor
Protocol: FIGS. 21A-C depicts the specificity of GDNF to dopaminergic neurons. Cultures were established as described in Example 1B. GDNF was added on the day of plating. A. ^3H-DA uptake was measured after seven days in vitro. B. ^14C-GABA uptake was measured after eight days in vitro. Cells were incubated and treated as for ^3H-DA uptake, except the uptake buffer consists of Kreb-Ringer's phosphate buffer, pH 7.4, containing 5.6 mM glucose, 1.3 mM EDTA, 10 μM amino-oxyacetic acid (to prevent GABA breakdown), 2 mM β-alanine (to inhibit glia uptake of GABA) and 0.1 μM ^14C-GABA (150 mCi/mmole, New England Nuclear, Boston, Mass.). In the presence of 1 mM diaminobutyric acid (DABA), a potent inhibitor of ^14C-GABA uptake into GABA neurons, the ^14C-uptake was reduced to 10%. Control values in the presence of DABA were subtracted from experimental values.
H^3-dopamine (^3H-DA) and ^14C-GABA uptake were measured in sister cultures of mesencephalic cells which had been grown with various concentrations of GDNF for 15 and 16 days, respectively. As described above, GDNF enhanced the ^3H-DA uptake capacity of mesencephalic dopamine neurons ˜150% over control without GDNF (FIG. 21A). […] This is also illustrated by the increase in the ^3H-DA/^14C-GABA uptake ratio calculated (FIG. 21C).

[6] = target: monoamine transporter on dopaminergic neurons (Rattus norvegicus, UniProt P23977); conditions: 0.5 mM inhibitor in uptake buffer
monoamine transporter on dopaminergic neurons, sequence (P23977 whole entry): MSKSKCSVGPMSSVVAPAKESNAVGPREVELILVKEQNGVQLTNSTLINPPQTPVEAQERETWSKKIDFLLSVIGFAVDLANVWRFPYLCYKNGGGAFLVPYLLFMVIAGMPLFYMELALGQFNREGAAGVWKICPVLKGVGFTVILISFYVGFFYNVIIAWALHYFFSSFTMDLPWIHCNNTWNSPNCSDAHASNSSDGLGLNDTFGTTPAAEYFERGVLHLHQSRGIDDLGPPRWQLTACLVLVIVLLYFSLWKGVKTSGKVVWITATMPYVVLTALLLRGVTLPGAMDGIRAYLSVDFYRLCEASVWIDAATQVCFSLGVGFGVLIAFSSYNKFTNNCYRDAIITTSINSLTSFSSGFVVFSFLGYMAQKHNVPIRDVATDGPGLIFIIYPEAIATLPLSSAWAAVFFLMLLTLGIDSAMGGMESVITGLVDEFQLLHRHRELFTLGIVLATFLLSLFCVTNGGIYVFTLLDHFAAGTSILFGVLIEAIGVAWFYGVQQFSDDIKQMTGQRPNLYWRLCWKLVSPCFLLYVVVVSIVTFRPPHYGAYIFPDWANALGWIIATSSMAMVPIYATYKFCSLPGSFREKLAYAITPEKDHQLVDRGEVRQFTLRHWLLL
Excerpt: The functional status of the dopaminergic neurons may be assayed in these cultures by measuring dopamine uptake through specific “scavenger” transporters in the dopaminergic neurons and by counting the number of neurons positive for the dopamine synthetic enzyme tyrosine hydroxylase using immunohistochemistry.

With `CN(C)CCCC1(c2ccc(F)cc2)OCc2cc(C#N)ccc21` (stereo not drawn) [citalpram, reference compound] the “3H-serotonin uptake remaining in presence of inhibitor” value [1] was 15%.

In the case of “epidermal growth factor (NSDSECPLSHDGYCLHDGVCMYIEALDKYACNCVVGYIGERCQYRDLKWWELR; Epidermal growth factor; UniProt P01133 971-1023, looked up) [EGF, non-specific factor increasing dopamine, serotonin and GABA uptake]”, the “effect on GABA uptake” value [2] is given as “increase”, the “effect on serotonin uptake” value [3] is given as “increase serotonin uptake” and the “effect on dopamine uptake” value [4] is given as “increase dopamine uptake”.

For `NCCC(N)C(=O)O` (stereo not drawn) [diaminobutyric acid (DABA), diaminobutyric acid, reference compound], the “14C-uptake remaining in presence of inhibitor” value [5] was 10%.

With `Fc1ccc(C(OCCN2CCN(CCCc3ccccc3)CC2)c2ccc(F)cc2)cc1` [GBR12909] the “blank 3H-DA uptake as % of uptake in untreated control cultures” value [6] was “less than 5%”.
